Data taken from ChEMBL document CHEMBL1124856, “Extension of a redox-based chemical delivery system to alpha, beta-unsaturated ketones” (J Med Chem, 1990).
“And” between values parts separate entries of the source, which are not always exact repeats. Identical values can stand only once.

Tests used:
[1] = species: Rattus norvegicus; test: In vitro rate constant, correlation coefficient for the disappearance in rat liver homogenate; format: ADME
[2] = species: Rattus norvegicus; test: In vitro rate constant, correlation coefficient for the disappearance in rat brain homogenate; format: ADME
[3] = Half-life for the disappearance in rat brain homogenate; format: ADME
[4] = Half-life for the disappearance in rat liver homogenate; format: ADME
[5] = species: Homo sapiens; test: Half-life for the disappearance in whole human blood; Stable; format: ADME, organism-based; settings: in vitro
[6] = species: Homo sapiens; test: In vitro rate constant, correlation coefficient for the disappearance in whole human blood; Stable
[7] = species: Rattus norvegicus; test: In vitro rate constant, correlation coefficient for the conversion to progesterone in rat liver homogenate; format: ADME
[8] = species: Rattus norvegicus; test: In vitro rate constant, correlation coefficient for the conversion to progesterone in whole rat blood.; format: ADME, organism-based

SMILES	Correlation coefficient [1]	Correlation coefficient [2]	half-life [3] [h]	half-life [4] [h]	T1/2 [5]	T1/2 [6]	Correlation coefficient [7]	Correlation coefficient [8]
CC(=O)C1CCC2C3CC=C4C=C(OC(=O)C5=CN(C)C=CC5)CCC4(C)C3CCC12C (stereo not drawn)	0.999	0.98	1.77	0.267	Stable	Stable		
CC(=O)C1CCC2C3CC=C4C=C(OC(=O)c5ccc[n+](C)c5)CCC4(C)C3CCC12C.[I-] (stereo not drawn)							0.996 and 0.994	0.998
